According to patent publication US9688653B2, “Ethoxyphenyl thienyl compounds and methods for the treatment of bacterial infections” (Duke University, priority 2013, dated 2017):

How the values were obtained:
E. coli K1 strain UTI89 [1] = experiment: microbe, parasite or virus in culture
From the text: The ability of the […] to bind to bacterial capsule, infect, and lyse E. coli UT189 was used as the primary assay to identify the effects of screened compounds on bacterial capsule formation. The phenotypic end-point assay measured the fluorescence generated by cellular processing of Alamar Blue as a direct indicator of cell viability. A total of […] compounds were screened using the primary assay. […] Hits were further evaluated using […] secondary assays for alternative measurement of compound-induced reduction in bacterial capsule formation (secondary assays 1 and 2) and specificity (secondary assays 3 and 4). Confirmed actives with an SI>5 were further investigated and subjected to chemical optimization, followed by secondary assay evaluation. Secondary assays more closely characterized the ability of the compounds to reduce bacterial capsule formation and can be used to examine the mechanism of action of the compounds. The combination of primary assay (to measure capsule reduction), counter assay (for general eukaryotic cell toxicity) and secondary assay (to measure reduction in capsule formation and specificity) were combined to allow a determination of probe efficacy, selectivity, and specificity.
A. Primary Assay: Screening for Inhibitors of Bacterial Capsule Biogenesis.
Primary assay: An end-point assay to measure the amount of K1 phage-induced bacterial cell lysis was employed to determine the compound effect on capsule biogenesis. K1 bacteriophage specifically binds the bacterial capsule during the initial stages of infection. Bacteria without capsule cannot be infected and lysed by the bacteriophage. […] A total of 338,740 compounds were screened at 100 μM in the primary screen Inhibition of phage lysis was calculated relative to the mean of the bacterial (positive) control on each microtiter plate. […] For calculation of S/B/Z value, and CV, the following formulae (in which SD stands for standard deviation) were used: S/B=mean signal/mean background; Z=1-3SD of sample+3SD of control mean of sample−mean of control; % CV=(SD mean signal/mean signal)×100.
IC50 values were calculated using a 4 parameter Levenburg-Marquardt algorithm, with the maximum and minimum locked at 0 and 100 respectively.
Primary assay: The primary assay was conducted in the 1,536 well plate format. Bacterial cultures of E. coli K1 strain UTI89 (cystitis isolate) and isogenic capsule mutant strains (as controls for phage infection) were grown and prepared at the screening center immediately prior to use. Overnight starting cultures of UTI89 were grown at 37° C., and inoculated into 1 liter of LB (starting OD600˜0.03), which was sufficient for screening 40 plates (including ˜10% waste) and ˜40,000 compounds as single points.
Control wells contained UTI89 (wt K1) with 0.5% DMSO as a simulated positive control; UTI89 with 0.5% DMSO and tetracycline for a negative growth control; and media plus vehicle control. 50 mL of LB Broth was inoculated with stock 150 μL E. coli UT189 and grown overnight at 37° C. The next day, cultures were diluted 1:75 in 1 L of LB Broth containing 0.5% DMSO. 3 μL of this culture was added to each plate well, and plates were incubated, inverted, at 37° C. for 2 hr. The K1F bacteriophage stock was diluted 1:8 in LB Broth containing 0.5% DMSO, and 1.5 μL of diluted phage (or media only) was added to the pre-plated test compound wells and appropriate control wells. The plates were centrifuged briefly, and then were incubated, inverted, at 37° C. for an additional 2 hr. Afterward, Alamar Blue reagent (Invitrogen, #DAL1100) was diluted 1:2 with LB broth and 1 μL was added to each plate well.

[2] = Cytotoxicity counterscreen, CellTiter Glo, 72 hr; type: cell-based, human; details: human, bladder carcinoma 5637 cells (ATCC HTB-9), five probe analogues
Experimental: (§1) B. Counterscreen: Cytotoxicity Screening for Potential Inhibitors of Bacterial Capsule Biogenesis.
(§2) Purpose: This cell-based assay measures the cytotoxicity of compounds in bladder carcinoma 5637 cells using luminescent cell viability assay readout.
(§3) Cytotoxicity assay: The cytotoxicity assay was performed as described in Section 6: Appendix. Hit cytotoxicity and the 50% toxic concentration (CC50) was determined and compared to the IC50 to calculate the selectivity index.
(§4) Assay Description: Cytotoxicity: Dose response testing (dose range=300-0.58 μM) established the hit cytotoxicity data. Compounds were plated in 384-well microplates in a stacked dose response format using the same doses used in the efficacy dose response. Bladder carcinoma 5637 cells were added to the compounds, and 72 hr later cell viability was measured using CellTiter Glo (38). Hit cytotoxicity and the 50% toxic concentration (TC50) was determined and compared to the IC50 to calculate the therapeutic index. Test compounds are serially diluted in a plate to plate matrix or stacked plate matrix. All 320 compounds in a source plate are diluted together resulting in a 10 point dose response dilution series. It is visualized as a serial dilution series proceeding vertically through a stack of plates with the high dose plate on top and the low dose plate on the bottom.
(§5) Control Drug: Hyamine was used as a positive cytotoxic control. All wells contained 0.5% DMSO.
(§6) Preparation of Bladder carcinoma 5637 cells: Cells are harvested and resuspended to 80,000 cells per ml in Complete DMEM/F12®.
(§7) Endpoint Read: Following the three day incubation period, the assay plates were equilibrated to room temperature for 30 min and an equal volume (30 μL) of Cell Titer-Glo® reagent (Promega Inc.) is added to each well using a WellMate™ (Matrix, Hudson, N.H.) and plates are incubated for an additional 10 min at room temperature. At the end of the incubation, luminescence is measured using a Perkin Elmer Envision™ multi-label reader (PerkinElmer, Wellesley, Mass.) with an integration time of 0.1 s.
(§8) Cytotoxicity. Testing was performed essentially as previously described. Concentration-response testing was performed over a range 0.58-300 μM in a […] well plate format. Bladder carcinoma 5637 cells (ATCC HTB-9) were added to the compounds, and 72 hrs later cell viability was measured using CellTiter Glo (Promega). The 50% toxic concentration (TC50) was determined and compared to the IC50 to calculate the therapeutic index. Hyamine was used as a positive cytotoxic control. All wells contained 0.5% DMSO.

E. coli K1 strain UTI89 [3] = experiment: Secondary assay 2: T7 phage-mediated lysis assay; type: cell-based, Escherichia coli; details: read-out: T7 phage IC50
From the text: D. Secondary Assay 2: Screening for Inhibitors of Bacterial Capsule Biogenesis—T7 Lysis Inhibition
Purpose: This secondary assay measures the compound mechanistic specificity for inhibition of bacterial capsule formation and excludes inhibitors of phage replication using a different bacteriophage (T7). In this assay, an increase in phage-induced lysis correlates to a decrease in capsule formation.
Purpose: This secondary assay measures the compound mechanistic specificity for inhibition of bacterial capsule formation using a different bacterial phage (T7). In this assay, an increase in phage-induced lysis correlates to a decrease in capsule formation.
Assay Description: T7 phage-mediated lysis assay: This assay determined if the mechanism of action of the compound is inhibition of phage infectivity or replication. The T7 phage has a nearly identical genome to K1F, without encoding an endosialidase. Its cycle of replication is similar to that of K1F as well. However, T7 entry into E. coli is inhibited by K capsules. This secondary assay was conducted in the 96 well plate format. […] Compounds were added in quadruplicate to plates in a concentration dependent manner in the range of 100-0.39 μM, followed by addition of 100 μL of bacterial culture. 1% DMSO (final well concentration) was included. The plates were tape sealed and shaken vigorously for 1.5 hr. An initial OD600 reading was measured to identify compounds that cause growth retardation or bacterial killing in the absence of phage. Next, T7 phage (5 μL) was added to all of the test wells. The plates were resealed and shaken vigorously at 37° C., and measurements of OD600 for phage-mediated lysis were taken after 3 hr. True inhibitors of capsule yielded bacteria that were susceptible to T7 phage and lysed within 2 hr of the addition of phage. […] The positive control drug C7 (100 μM final well concentration) was used in this screen.
T7 phage counter assay. This secondary assay was performed as previously described and was used to distinguish compounds with phage inhibitory effects from true polysaccharide capsule inhibitors. […] Thus, the presence of a capsule inhibits T7-mediated lysis. In this assay, an increase in phage-induced lysis correlates to a decrease in capsule formation. True inhibitors of capsule yielded bacteria that were susceptible to T7 phage and lysed within 2 hr of the addition of phage. […] The positive control molecule C7 (100 μM final well concentration) was used in this screen.

[4] = test system: Bladder carcinoma 5637 cells; experiment: Cytotoxicity counterscreen, CellTiter Glo, 72 hr; type: cell-based, human
Experimental: as §1, §2, §3, §4, §5, §6, §7, §8

[5] = read-out: K1 phage IC50, purchased analogue series, n = 3
[6] = purchased analogue series, n = 2
[7] = read-out: K1 phage IC50, second round of synthetic analogues, n = 3
[8] = second round of synthetic analogues, n = 2
[9] = read-out: K1 phage IC50, first round of synthetic analogues, n = 3
[10] = first round of synthetic analogues, n = 2

| SMILES | IC50 [4] [µM] | IC50 (E. coli K1 strain UTI89 [1]; [7]) [µM] | IC50 (E. coli K1 strain UTI89 [3]; [8]) [µM] | IC50 (E. coli K1 strain UTI89 [1]; [9]) [µM] | IC50 (E. coli K1 strain UTI89 [3]; [10]) [µM] | also measured |
| --- | --- | --- | --- | --- | --- | --- |
| O=C(O)c1sc(-c2ccc(OC(F)(F)F)cc2)cc1NC(=O)c1c(F)cccc1F [CID 53495055, 3-(2,6-Difluorobenzamido)-5-(4-(trifluoromethoxy)phenyl)thiophene-2-carboxylic acid] | – | – | – | – | – | IC50 (E. coli K1 strain UTI89 [1]; Escherichia coli, read-out: K1 phage IC50 (inhibition of K1 capsule formation)): 13 µM; IC50 (E. coli K1 strain UTI89 [1]; Escherichia coli, read-out: K1 phage IC50, five probe analogues): 13 ± 4.6 µM; Selectivity (E. coli K1 strain UTI89 [1]; five probe analogues): 3.91; IC50 at 72 h [2]: 51 ± 2.62 µM; IC50 (E. coli K1 strain UTI89 [3]; Escherichia coli, five probe analogues): 1.35 µM |
| O=C(Nc1cc(-c2ccccc2)sc1C(=O)O)c1cccc(Cl)c1 [compound 23602077] | 43.8 | – | – | – | – | IC50 (E. coli K1 strain UTI89 [1]; [5]): 84.5 µM; IC50 (E. coli K1 strain UTI89 [3]; [6]): 34.4 µM |
| CCCOc1ccc(-c2cc(NC(=O)c3c(F)cc(F)cc3F)c(C(=O)O)s2)cc1 [compound 56643023] | 85.6 | 8.06 | < 0.625 | – | – | – |
| O=C(Nc1cc(-c2ccc(OCCCC(F)(F)F)cc2)sc1C(=O)O)c1cc(Br)c(Br)o1 [compound 56643009] | 251 | > 100 | < 2.5 | – | – | – |
| O=C(Nc1cc(-c2ccc(OCC(F)(F)F)cc2)sc1C(=O)O)c1ccc(Br)o1 [compound 56643003] | 50 | 4.9 | 0.625 | – | – | – |
| CCOc1ccc(-c2cc(NC(=O)c3c(F)cc(F)cc3F)c(C(=O)O)s2)cc1 [compound 56643006] | 76.6 | 20 | < 5 | – | – | – |
| O=C(Nc1cc(-c2ccccc2)sc1C(=O)O)c1cccs1 [compound 9945365] | 62 | – | – | – | – | IC50 (E. coli K1 strain UTI89 [1]; [5]): 75.4 µM; IC50 (E. coli K1 strain UTI89 [3]; [6]): 6.9 µM |
| COc1ccc(-c2cc(NC(=O)c3c(F)cccc3F)c(C(=O)O)s2)cc1 [compound 53470430] | 239 | – | – | > 100 | 2.65 | – |
| O=C(Nc1cc(-c2ccc(C(F)(F)F)cc2)sc1C(=O)O)c1ccc(Br)s1 [compound 53470428] | 38.5 | – | – | > 50 | 14.1 | – |
| CCCCOc1ccc(-c2cc(NC(=O)c3cc(Br)c(Br)o3)c(C(=O)O)s2)cc1 [compound 56643019] | 31.7 | 23.3 | 1.25 to 2.5 | – | – | – |
| Cc1ccc(-c2cc(NC(=O)c3ccc(Br)s3)c(C(=O)O)s2)cc1 [compound 53470429] | 64 | – | – | > 50 | 10.7 | – |
| CC(C)c1ccc(-c2cc(NC(=O)c3cccc(F)c3)c(C(=O)O)s2)cc1 [compound 53470444] | 37.6 | – | – | 24.8 | 2.81 | – |
| Cc1c(C(=O)Nc2cc(-c3ccccc3)sc2C(=O)O)oc2ccccc12 [compound 17546661] | 48.7 | – | – | – | – | IC50 (E. coli K1 strain UTI89 [1]; [5]): > 100 µM; IC50 (E. coli K1 strain UTI89 [3]; [6]): 33.3 µM |
| [N-]=[N+]=NCCOc1ccc(-c2cc(NC(=O)c3c(F)cccc3F)c(C(=O)O)s2)cc1 [compound 56643025] | 273 | 17.5 | < 0.625 | – | – | – |
| O=C(O)c1sc(-c2ccc(OCCC(F)(F)F)cc2)cc1NC(=O)c1c(F)cccc1F [compound 56643020] | 68.4 | 0.84 | < 0.0156 | – | – | – |
| CCCc1ccc(-c2cc(NC(=O)c3cc(Br)c(Br)o3)c(C(=O)O)s2)cc1 [compound 56643005] | 41 | 6.78 | < 5 | – | – | – |
| O=C(O)c1sc(-c2ccccc2)cc1NC(=O)C1CCCC1 [compound 16393058] | 169 | – | – | – | – | IC50 (E. coli K1 strain UTI89 [1]; [5]): > 100 µM; IC50 (E. coli K1 strain UTI89 [3]; [6]): 56.6 µM |
| CC(C)c1ccc(-c2cc(NC(=O)c3cc4ccccc4o3)c(C(=O)O)s2)cc1 [compound 53470434] | 47.2 | – | – | 42.9 | 2.71 | – |
| CC(C)(C)c1ccc(-c2cc(NC(=O)c3cccc(F)c3)c(C(=O)O)s2)cc1 [compound 53470435] | 21.1 | – | – | 19.9 | 2.7 | – |
| CCOc1ccc(-c2cc(NC(=O)c3ccc(Br)s3)c(C(=O)O)s2)cc1 [compound 53470415] | 49.7 | – | – | 17 | 3.33 | – |
| CC(C)(C)c1ccc(-c2cc(NC(=O)c3c(F)cccc3F)c(C(=O)O)s2)cc1 [compound 53470433] | 35.1 | – | – | 11.5 | 1.64 | – |
| O=C(Nc1cc(-c2ccccc2)sc1C(=O)O)c1ccc(Cl)s1 [compound 17547200] | 71.5 | – | – | – | – | IC50 (E. coli K1 strain UTI89 [1]; [5]): > 100 µM; IC50 (E. coli K1 strain UTI89 [3]; [6]): 15.1 µM |
| O=C(Nc1cc(-c2ccc(OCCCC(F)(F)F)cc2)sc1C(=O)O)c1ccc(Br)o1 [compound 56643008] | 38.7 | 1.78 | < 2.5 | – | – | – |
